Assay results taken from patent publication US20070072917A1, “Substituted 2-aminotetralin for the treatment of depression” (SRZ Properties, Inc., priority 2003, published 2007).
“Also recorded” adds a separate entry of the source.

Legend:
[1] = test system: bulbectomised rats; assay: bulbectomy study (olfactory bulbs removed on both sides); assay type: in vivo, Sprague-Dawley rats; conditions: low doses, 3 minutes on test field
Experimental: In a further animal model (embodiment 3), it was examined whether the antidepressive effects of rotigotine can be distinguished from a general motor stimulation. In this case, rotigotine was administered to rats whose olfactory bulbs had been removed on both sides. The removal of the olfactory bulb leads to an adaptive hyperactivity in the untreated control group. It is known from literature that chronically administered antidepressants lead to a reduction in the movement activity of the animals in this model, whereas stimulants further increase the motor activity (van Riezen H et al, Br J. Pharmacol. 60(4), 1977, 521; Kelly J P et al, Pharmacol Ther. 74(3), 1997, 299). Therefore, it is possible to discriminate between antidepressive and non-specific stimulatory effects of an active ingredient with this model. […] The bulbectomy study was carried out on Sprague-Dawley rats. A sham-operated group, which was operated on without removal of the olfactory bulbs, served as a control group. 14 days after the operation, the rats were treated with vehicle, a rotigotine depot suspension (every second day) or imipramine. On test days, the rats were placed onto a test field and left to themselves for 3 minutes. The locomotor activities of the animals were thereby measured on the basis of the number of lines crossed.

[2] = test system: rats; assay: learned helplessness test; assay type: in vivo; conditions: several days of administration, low concentrations / depending on the dose, vs vehicle control (HC)
Experimental: In the “learned helplessness test”, rats are repeatedly subjected to uncontrollable stress. This brings about an impaired learning ability in the animals in a later situation (for example after 48 hours) in which they could escape the stress again. Following the sub-chronic but not acute administration of antidepressants, the learning ability normalises again and the animals learn to escape the (announced) stress (in time) (Sherman, Pharmacology Biochemistry & Behavior 16, 1982, 449).

[3] = test system: rats; assay: forced swim test; assay type: in vivo; conditions: repeated swim test, subcutaneously applied
Excerpt: The “forced swim test” is an animal model in which depressive episodes are triggered by acute stress. In this test, rats are forced to swim in a limited space. After initial attempts to save themselves, in which the animals realise the hopelessness of the situation, they lapse into immobility. On repetition of the experiment, the animals remain immobile from the start of the experiment. If the animals are pre-treated with antidepressants, the period of immobility in the repeated test is shortened and the animals generally commence search and escape movements immediately after transfer into the water basin (Porsolt, Biomedicine 30, 1979, 139).

**Q.** Which results are given for `CCCN(CCc1cccs1)C1CCc2c(O)cccc2C1` (single isomer, unassigned; (-)) [rotigotine, (−)-5,6,7,8-tetrahydro-6-[propyl[2-(2-thienyl)ethyl]amino]-1-naphthol]?
**A.** bulbectomy-induced locomotor hyperactivity (number of lines crossed) [1]: almost complete suppression of the bulbectomy-induced locomotor hyperactivity; also recorded: significant antidepressive effect; also recorded: significantly reduce motor hyperactivity; learning behaviour [2]: significant antidepressive effect; period of immobility [3]: significant antidepressive effect; also recorded: clear reduction in the period of immobility; period of immobility ([3]; listed as Rotigotine): significantly shortened period of immobility
